Measured values published in patent US12297164B2, “Benzidine compound and application thereof” (Guangzhou IMD therapeutics Co., Ltd., priority 2019, dated 2025).
Where two headings read alike, the source gives them in different places.

Legend:
RORγ [1] = biological target: T1, RORγ (Homo sapiens (Human), UniProt P51449); assay: AlphaScreen inhibitory activity on RORγ protein; format: biochemical; conditions: RORγ 200 nM, bSRC1-4 50 nM
Protocol: Experimental materials: target protein RORγ with the final concentration of 200 nM; experimental buffer (10×) MOPS (500 mM) PH 7.4, CHAPS (0.5 mM), NaF (500 mM), and
The mixture was centrifuged at room temperature at 1000 rpm for 1 minute to make the system fully mixed. After being wrapped in tin foil, the mixture was incubated in the dark for 1.5 hours.
Target sequence in this assay (P51449 whole entry): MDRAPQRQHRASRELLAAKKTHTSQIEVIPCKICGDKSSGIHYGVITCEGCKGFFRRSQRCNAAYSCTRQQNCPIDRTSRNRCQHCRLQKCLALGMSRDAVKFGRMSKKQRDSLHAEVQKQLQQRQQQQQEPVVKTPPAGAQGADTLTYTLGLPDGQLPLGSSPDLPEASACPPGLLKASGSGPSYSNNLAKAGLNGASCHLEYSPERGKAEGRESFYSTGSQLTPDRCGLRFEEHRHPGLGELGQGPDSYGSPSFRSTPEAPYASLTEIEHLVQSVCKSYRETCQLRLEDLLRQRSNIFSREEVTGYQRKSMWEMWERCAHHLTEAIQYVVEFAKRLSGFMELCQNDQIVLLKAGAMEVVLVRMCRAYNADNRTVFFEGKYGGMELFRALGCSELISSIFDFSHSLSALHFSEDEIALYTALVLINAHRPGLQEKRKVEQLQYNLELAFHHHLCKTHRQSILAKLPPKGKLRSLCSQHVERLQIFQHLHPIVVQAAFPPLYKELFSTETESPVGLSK

RORγ [2] = biological target: T1, RORγ; assay: Luciferase double reporter gene assay (Gal4-RORγLBD) in 293T cells; format: cell-based; conditions: 24 hours of incubation
Protocol: (§1) The cells were cultured in a 96-well plate one day before transfection, with a cell density of 1.5×10^4 cells/well. After 24 hours of adherent growth, the cells were subjected to transient transfection by using the method of double reporter gene co-transfection with the transfection reagent of Lipo-fectamine 2000, where the transfection reagent and plasmids were diluted with Opti-MEM reagent, respectively. […] Each sample had 3 duplicate wells.
Target sequence in this assay (P51449 269-508): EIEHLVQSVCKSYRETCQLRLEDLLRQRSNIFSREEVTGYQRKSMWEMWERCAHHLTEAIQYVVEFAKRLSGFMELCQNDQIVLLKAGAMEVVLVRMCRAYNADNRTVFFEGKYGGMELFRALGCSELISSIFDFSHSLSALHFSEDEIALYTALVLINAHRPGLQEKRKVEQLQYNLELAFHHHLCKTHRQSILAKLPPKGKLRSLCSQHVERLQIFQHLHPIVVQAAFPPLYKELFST

RORγ [3] = biological target: T1, RORγ; assay: TSA detection (thermal shift); format: binding; conditions: protein 10 μM
Protocol: Experimental materials: hRORγ protein, fluorescent dye Sypro Orange, 10p buffer, ultrapure water, and HSP-96 well reaction plates.
Experimental method: The diluted protein (with the final concentration of 10 μM), fluorescent dye (with the final concentration of 5×), 10× TSA buffer, and double distilled water were prepared into a mixed solution with final component volumes of 1 μL, 1 μL, 1 μL, and 2 μL, receptively. The mixed solution was transferred to an HSP-96 well reaction plate, 5 μL each well. The ligand, i.e., small molecule compound, was added, 5 μL per well, with the final concentration of 200 µM. The mixture was centrifuged at room temperature at 1000 rpm for 1 minute to make the system fully mixed. The mixture was placed on an ice bath in low light for more than 30 minutes, and after that, put into RT-PCR instrument for testing. The temperature was set from 30° C. to 80° C., and the mixture was detected every time the temperature was raised by 0.5° C. and every 5 seconds.
Target sequence in this assay (P51449 whole entry): as the sequence (P51449 whole entry) above

[4] = test system: 293T (human renal epithelial cell line transfected with adenovirus E1A gene, expressing SV40 large T antigen); assay: Cell-Titer GLO cell inhibition; format: cell-based
Protocol: (§2) Experimental materials: fluorescence signal detection instrument: EnSpire Alpha 2390 multifunctional microplate reader (produced by Perkin Elmer Company); 384-well bottom permeable microwell plate; Cell-Titer GLO luminescent reagent; cancer cells to be tested; medium and fetal bovine serum required for cell culture.
(§3) […]. After incubation with the compound for 72 to 144 hours, Cell-Titer GLO reagent 25-T was added to each well, and the plate was shaken for 20 minutes to lyse the cells. After incubation for 10 minutes, the cells were centrifuged for 1 minute, the signal value of luminescence 384 was measured. The inhibition curve was fitted by GraphPad Prism software to obtain IC50.

[5] = test system: A549 (non-small cell lung cancer); assay: Cell-Titer GLO cell inhibition; format: cell-based
Protocol: as §2, §3

[6] = test system: Cos7 (African green monkey kidney cells); assay: Cell-Titer GLO cell inhibition; format: cell-based
Protocol: as §2, §3

[7] = test system: H1975 (lung cancer cells); assay: Cell-Titer GLO cell inhibition; format: cell-based
Protocol: as §2, §3

HFL-1 (lung fibroblasts) = assay: Cell-Titer GLO cell inhibition; format: cell-based
Protocol: as §2, §3

[8] = test system: HL-7702 (liver epithelial cells); assay: Cell-Titer GLO cell inhibition; format: cell-based; conditions: Homo sapiens, L02
Protocol: as §2, §3

HT-29 (colon cancer) = assay: Cell-Titer GLO cell inhibition; format: cell-based
Protocol: as §2, §3

[9] = test system: Hela (cervical cancer cells); assay: Cell-Titer GLO cell inhibition; format: cell-based; conditions: Homo sapiens
Protocol: as §2, §3

[10] = test system: Hs578T (triple negative breast cancer); assay: Cell-Titer GLO cell inhibition; format: cell-based
Protocol: as §2, §3

[11] = test system: MCF-7 (ER + breast cancer); assay: Cell-Titer GLO cell inhibition; format: cell-based
Protocol: as §2, §3

[12] = test system: MDA-MB-231 (triple negative breast cancer); assay: Cell-Titer GLO cell inhibition; format: cell-based; conditions: Homo sapiens
Protocol: as §2, §3

MV-4-11 (acute leukemia) = assay: Cell-Titer GLO cell inhibition; format: cell-based
Protocol: as §2, §3

U2OS (osteosarcoma) = assay: Cell-Titer GLO cell inhibition; format: cell-based
Protocol: as §2, §3

[13] = test system: VcaP (AR-positive prostate cancer); assay: Cell-Titer GLO cell inhibition; format: cell-based
Protocol: as §2, §3

[14] = test system: Du145 (AR-negative prostate cancer); assay: Cell-Titer GLO cell inhibition; format: cell-based
Source text: (§4) The inhibition curve was fitted by GraphPad Prism software to obtain IC50.

[15] = test system: PC-3 (AR-negative prostate cancer); assay: Cell-Titer GLO cell inhibition; format: cell-based
Source text: as §4

RORγ [16] = biological target: T1, RORγ; assay: ITC binding activity; conditions: read-out: Kd ITC, 25° C., pH 7.5
Target sequence in this assay (P51449 whole entry): as above

[17] = Pharmacokinetics in SD rats; conditions: for F: oral administration 10 mg/kg vs intravenous 2 mg/kg
Protocol: MATERIALS: Pharmacokinetic analysis was performed by Medicilon Corporation in Shanghai. Twelve Sprague and Dawley rats were provided by Super-B&K laboratory animal Corp. Ltd in Shanghai.
Experimental method: The compound was dissolved in DMSO:PEG 400:20% HP-400 (5:40:55, v:v:v) to serve as a stock solution (0.4 mg/ml, intravenous injection; 1 mg/ml, oral administration). The stock solution was administrated orally to three SD rats at a dose of 10 mg/kg, and administrated intravenously to three SD rats at a single dose of 2 mg/kg. Blood was collected from the jugular vein before oral administration and at 0.25, 0.5, 1, 2, 4, 6, 8, and 24 hours after oral administration. Blood was collected from the jugular vein before intravenous injection and at 0.083, 0.25, 0.5, 1, 2, 4, 6, 8, and 24 hours after intravenous injection. About 200 μL of blood sample was collected into a heparinized tube and immediately centrifuged at 8000 rpm for 6 minutes, and the resulting plasma was stored at −80° C. until analysis.

RORγ [18] = biological target: T1, RORγ; assay: Specificity luciferase reporter assay in 293T cells, RORγ; conditions: read-out: IC50 RORγ, reporter gene
Target sequence in this assay (P51449 269-508): as the sequence (P51449 269-508) above
Protocol: The cells were cultured in a 96-well plate one day before transfection, with a cell density of 1.5×10^4 cells/well. After 24 hours of adherent growth, the cells were subjected to transient transfection by using the method of double reporter gene co-transfection with the transfection reagent of Lipo-fectamine 2000, and the transfection reagent and plasmids were diluted with Opti-MEM reagent, respectively. Gal4-RORγLBD was 25 ng per well; PG5-luc gene was 25 ng per well; and Renilla was 5 ng per well. After 24 hours of co-transfection, different concentrations of compounds were added. After 24 hours of incubation, Luciferase double reporter gene detection kit was used to detect luminescence signals. Each sample had 3 duplicate wells. The IC50 value (half inhibitory concentration) was calculated by software.

[19] = test system: 22Rv1 (AR-positive prostate cancer); assay: Cell-Titer GLO cell inhibition; format: cell-based; conditions: Homo sapiens
Source text: as §4

RORα = RORα (Homo sapiens (Human), UniProt P35398); assay: Specificity luciferase reporter assay in 293T cells, RORα; format: cell-based; conditions: reporter gene
Chain of RORα (P35398 whole entry): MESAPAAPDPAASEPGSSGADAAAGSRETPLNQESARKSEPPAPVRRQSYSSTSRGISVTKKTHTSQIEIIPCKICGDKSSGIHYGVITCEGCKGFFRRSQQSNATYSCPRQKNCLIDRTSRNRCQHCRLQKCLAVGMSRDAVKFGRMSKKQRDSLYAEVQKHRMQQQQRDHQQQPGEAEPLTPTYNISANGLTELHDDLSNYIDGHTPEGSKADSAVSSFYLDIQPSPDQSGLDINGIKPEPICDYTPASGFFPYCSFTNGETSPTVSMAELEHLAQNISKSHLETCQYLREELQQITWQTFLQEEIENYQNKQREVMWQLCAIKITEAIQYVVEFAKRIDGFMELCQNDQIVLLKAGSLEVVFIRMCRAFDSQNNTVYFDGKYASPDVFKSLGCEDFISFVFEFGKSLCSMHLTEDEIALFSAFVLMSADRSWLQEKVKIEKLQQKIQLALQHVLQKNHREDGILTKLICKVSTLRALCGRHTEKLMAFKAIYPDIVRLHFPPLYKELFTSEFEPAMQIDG
Protocol: as §1, with “and” for “where”

[20] = test system: C4-2B (AR-positive prostate cancer); assay: Cell-Titer GLO cell inhibition; format: cell-based; conditions: 72 to 144 hours
Source text: as §4

[21] = SD rats, intravenous injection, 2 mg/kg
[22] = Sprague-Dawley, rat, in vivo, iv, 2 mg/kg
[23] = Sprague-Dawley, rat, in vivo, po, 10 mg/kg

## CS(=O)(=O)c1ccc(CC(=O)Nc2ccc(-c3ccc(C(O)(C(F)(F)F)C(F)(F)F)cc3F)cc2)cc1 [Example 1, N-(2′-fluoro-4′-(1,1,1,3,3,3-hexafluoro-2-hydroxypropan-2-yl)-[1,1′-biphenyl]-4-yl)-2-(4-(methylsulfonyl)phenyl)acetamide]
RORγ [1]
  IC50: 2.28 ± 0.05 µM
RORγ [2]
  IC50: 0.12 µM
RORγ [3]
  ΔTm: 7.8 °C
[4]; Homo sapiens, HEK-293T, 293T, ~ = estimate, read-out: IC50
  IC50: 15.3 µM
[5]; Homo sapiens
  IC50: 22 µM
[6]; Chlorocebus sabaeus, COS-7
  IC50: 40 µM
[7]; Homo sapiens, NCI-H1975
  IC50: 24 µM
HFL-1 (lung fibroblasts); Homo sapiens, HFL1
  IC50: 30 µM
[8]
  IC50: ~34.6 µM
HT-29 (colon cancer); Homo sapiens
  IC50: 14.6 µM
[9]
  IC50: 31.4 µM
[10]; Homo sapiens, Hs-578T
  IC50: 18.4 µM
[11]; Homo sapiens, MCF7
  IC50: 13.3 µM
[12]
  IC50: ~34.7 µM
MV-4-11 (acute leukemia); Homo sapiens, MV4-11
  IC50: 4.82 µM
U2OS (osteosarcoma); Homo sapiens
  IC50: 34.5 µM
[13]; Homo sapiens, VCaP
  IC50: 12.8 µM
[14]; Homo sapiens, DU-145
  IC50: 19.1 µM
[15]
  IC50: 16 µM
RORγ [16]
  Kd: 0.56 µM
[17]; [21]
  Cl: 3.2288 ± 0.2047 mL/min/kg
  Vz: 3.54 ± 0.271 L/kg
[17]; SD rats
  F: 51.91%
[17]; SD rats, oral administration, 10 mg/kg
  Tmax: 5.33 ± 2.31 h
[17]; [22]
  AUC(0-inf): 10400 ± 664 ng·h/mL
  AUC(0-t): 7660 ± 329 ng·h/mL
  Cmax: 980 ± 53.2 ng/mL
  Tmax: 0.08 h
  half-life: 12.7 ± 1.21 h
[17]; [23]
  AUC(0-inf): 24500 ± 5810 ng·h/mL
  AUC(0-t): 21600 ± 3950 ng·h/mL
  Cmax: 1420 ± 161 ng/mL
  half-life: 8.67 ± 0.05 h
RORγ [18]
  IC50: 0.12 ± 0.03 µM

## CCS(=O)(=O)c1ccc(CC(=O)Nc2ccc(-c3ccc(C(O)(C(F)(F)F)C(F)(F)F)cc3F)cc2)cc1 [Example 2, 2-(4-(ethylsulfonyl)phenyl)-N-(2′-fluoro-4′-(1,1,1,3,3,3-hexafluoro-2-hydroxypropan-2-yl)-[1,1 1,1′-biphenyl]-4-yl)acetamide]
[4]; Homo sapiens, HEK-293T
  IC50: 6.22 µM
[5]; Homo sapiens
  IC50: 7.08 µM
[6]; Chlorocebus sabaeus, COS-7
  IC50: 29 µM
[7]; Homo sapiens, NCI-H1975
  IC50: 16 µM
HFL-1 (lung fibroblasts); Homo sapiens, HFL1
  IC50: ~31.9 µM
[8]
  IC50: ~50 µM
HT-29 (colon cancer); Homo sapiens
  IC50: 6.07 µM
[9]
  IC50: 25.1 µM
[10]; Homo sapiens, Hs-578T
  IC50: 11.9 µM
[11]; Homo sapiens, MCF7
  IC50: 10.5 µM
[12]
  IC50: ~80 µM
MV-4-11 (acute leukemia); Homo sapiens, MV4-11
  IC50: 9.48 µM
U2OS (osteosarcoma); Homo sapiens
  IC50: 15.9 µM
[13]; Homo sapiens, VCaP
  IC50: 13 µM
[19]
  IC50: 14.5 ± 1.1 µM
[14]; Homo sapiens, DU-145
  IC50: 11.5 µM
[15]
  IC50: 15 µM

## O=C(Cc1ccc([N+](=O)[O-])cc1)Nc1ccc(-c2ccc(C(O)(C(F)(F)F)C(F)(F)F)cc2F)cc1 [Example 3, N-(2′-fluoro-4′-(1,1,1,3,3,3-hexafluoro-2-hydroxypropan-2-yl)-[1,1′-biphenyl]-4-yl)-2-(4-nitrophenyl)acetamide]
RORγ [1]
  IC50: 4.85 ± 0.04 µM
RORγ [2]
  IC50: 1.49 µM
RORγ [3]
  ΔTm: 6 °C

## O=C(Cc1ccccc1[N+](=O)[O-])Nc1ccc(-c2ccc(C(O)(C(F)(F)F)C(F)(F)F)cc2F)cc1 [Example 4, N-(2′-fluoro-4′-(1,1,1,3,3,3-hexafluoro-2-hydroxypropan-2-yl)-[1,1′-biphenyl]-4-yl)-2-(2-nitrophenyl)acetamide]
RORγ [1]
  IC50: 3.46 ± 1.32 µM
RORγ [2]
  IC50: 0.19 µM
RORγ [3]
  ΔTm: 4.2 °C
RORα
  inhibitory rate on RORα: 37%
RORα; NA = no inhibitory effect
  IC50: 7.57 ± 0.01 µM
RORγ [16]
  Kd: 0.78 µM
[17]; [21]
  Cl: 5.4445 ± 1.543 mL/min/kg
  Tmax: 0.19 ± 0.10 h
  Vz: 3.42 ± 0.594 L/kg
[17]; SD rats
  F: 19%
[17]; [22]
  AUC(0-inf): 6440 ± 1720 ng·h/mL
  AUC(0-t): 3330 ± 495 ng·h/mL
  Cmax: 839 ± 38.1 ng/mL
  half-life: 7.67 ± 2.36 h
[17]; [23]
  AUC(0-t): 3220 ± 781 ng·h/mL
  Cmax: 721 ± 120 ng/mL
  Tmax: 8 h
RORγ [18]
  IC50: 0.19 ± 0.02 µM

## Nc1ccc(CC(=O)Nc2ccc(-c3ccc(C(O)(C(F)(F)F)C(F)(F)F)cc3F)cc2)cc1 [Example 5, 2-(4-aminophenyl)-N-(2′-fluoro-4′-(1,1,1,3,3,3-hexafluoro-2-hydroxypropan-2-yl)-[1,1′-biphenyl]-4-yl)acetamide]
RORγ [1]
  IC50: 2.68 µM
RORγ [2]
  IC50: 4.16 µM
RORγ [3]
  ΔTm: 1.5 °C

## Nc1ccccc1CC(=O)Nc1ccc(-c2ccc(C(O)(C(F)(F)F)C(F)(F)F)cc2F)cc1 [Example 6, 2-(2-aminophenyl)-N-(2′-fluoro-4′-(1,1,1,3,3,3-hexafluoro-2-hydroxypropan-2-yl)-[1,1′-biphenyl]-4-yl)acetamide]
RORγ [1]
  IC50: 5.17 µM
RORγ [2]
  IC50: 0.96 µM
RORγ [3]
  ΔTm: 1.5 °C

## CCCCC(=O)Nc1ccc(-c2ccc(C(O)(C(F)(F)F)C(F)(F)F)cc2F)cc1 [Example 7]
RORγ [1]
  IC50: 10.2 ± 1.61 µM
RORγ [2]
  IC50: 4.17 µM
RORγ [3]
  ΔTm: 6.3 °C

## OC(c1ccc(-c2ccc(CN3CCN(Cc4ccncc4)CC3)cc2)c(F)c1)(C(F)(F)F)C(F)(F)F [SR2211, reference compound]
[4]; 293T
  inhibition rate (value in brackets): 67%
[4]; 293T, ~ = estimate, read-out: IC50
  IC50: ~80 µM
[5]
  inhibition rate (value in brackets): 55%
[5]; ~ = estimate, read-out: IC50
  IC50: ~10 µM
[6]; Cos7, read-out: IC50
  IC50: > 100 µM
[7]; H1975
  inhibition rate (value in brackets): 41%
[7]; H1975, read-out: IC50
  IC50: 30.7 µM
HFL-1 (lung fibroblasts); HFL-1, ~ = estimate, read-out: IC50
  IC50: > 50 µM
HT-29 (colon cancer); read-out: IC50
  IC50: > 50 µM
[10]; Hs578T
  inhibition rate (value in brackets): ~50%
[10]; Hs578T, ~ = estimate, read-out: IC50
  IC50: ~10 µM
[11]; MCF-7
  inhibition rate (value in brackets): 42%
[11]; MCF-7, ~ = estimate, read-out: IC50
  IC50: ~9.98 µM
MV-4-11 (acute leukemia); MV-4-11, read-out: IC50
  IC50: 11.5 µM
U2OS (osteosarcoma)
  inhibition rate (value in brackets): 52%
U2OS (osteosarcoma); ~ = estimate, read-out: IC50
  IC50: ~10 µM
[13]; VcaP, 72 to 144 hours, read-out: IC50
  IC50: 37.6 µM
[20]
  IC50: 10.1 µM
[14]; Du145
  inhibition rate (value in brackets): ~50%
[14]; Du145, 72 to 144 hours, ~ = estimate, read-out: IC50
  IC50: ~10 µM
